Laboratory results: PubChem BioAssay AID248 (DTP/NCI, 2004)
Where “and” joins values, the source holds several entries; their conditions need not be identical. Equal entries are not always repeated. Toxic doses and inconclusive results are not listed.

Test system: L1210 leukemia ip in BDF1 mice, survival T/C
Experiment: NCI In Vivo Anticancer Drug Screen. Data for tumor model L1210 Leukemia (intraperitoneal) in B6D2F1 (BDF1) mice
Conditions: endpoint: mean survival time, higher = longer survival
How it was run: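 Transplanted-tumor mice were given test agent; controls received vehicle only. Survival readings from the two groups were divided (treated over control).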

For `Cn1c(CCCC(=O)O)nc2cc(N(CCCl)CCCl)ccc21`, the T/C (dose: 2.5 mg/kg/injection, schedule: Q01DX001 (ip), vehicle: other) was 101 % of control, the T/C (dose: 2.5 mg/kg/injection, schedule: Q01DX009 (ip), vehicle: other) was 111 % of control and the T/C (dose: 4.37 mg/kg/injection, schedule: Q01DX001 (ip), vehicle: saline) was 106 % of control. For the same compound, the T/C (dose: 4.37 mg/kg/injection, schedule: Q04DX003 (ip), vehicle: saline) was 115 % of control, the T/C (dose: 5.0 mg/kg/injection, schedule: Q01DX001 (ip), vehicle: other) was 109 % of control and the T/C (dose: 5.0 mg/kg/injection, schedule: Q01DX009 (ip), vehicle: Klucel (hydroxypropylcellulose) (HPC)) was 117 % of control. The T/C (dose: 5.0 mg/kg/injection, schedule: Q01DX009 (ip), vehicle: other) was 117 % of control, the T/C (dose: 5.0 mg/kg/injection, schedule: Q04DX003 (ip), vehicle: other) was 120 % of control and the T/C (dose: 6.6 mg/kg/injection, schedule: Q01DX009 (ip), vehicle: Klucel (hydroxypropylcellulose) (HPC)) was 110 % of control. For the same compound, the T/C (dose: 8.75 mg/kg/injection, schedule: Q01DX001 (ip), vehicle: saline) was 117 % of control, the T/C (dose: 8.75 mg/kg/injection, schedule: Q04DX003 (ip), vehicle: saline) was 123 % of control and the T/C (dose: 10.0 mg/kg/injection, schedule: Q01DX001 (ip), vehicle: other) was 111 % of control and 124 % of control. For the same compound, the T/C (dose: 10.0 mg/kg/injection, schedule: Q01DX009 (ip), vehicle: acetone) was 114 % of control, the T/C (dose: 10.0 mg/kg/injection, schedule: Q01DX009 (ip), vehicle: other) was 120 % of control and the T/C (dose: 10.0 mg/kg/injection, schedule: Q04DX003 (ip), vehicle: Klucel (hydroxypropylcellulose) (HPC)) was 117 % of control. For the same compound, the T/C (dose: 10.0 mg/kg/injection, schedule: Q04DX003 (ip), vehicle: other) was 118 % of control, the T/C (dose: 12.5 mg/kg/injection, schedule: Q01DX001 (ip), vehicle: saline) was 116 % of control and the T/C (dose: 17.5 mg/kg/injection, schedule: Q01DX001 (ip), vehicle: saline) was 116 % of control. The T/C (dose: 17.5 mg/kg/injection, schedule: Q04DX003 (ip), vehicle: saline) was 116 % of control, the T/C (dose: 20.0 mg/kg/injection, schedule: Q01DX001 (ip), vehicle: carboxymethylcellulose (CMC)) was 117 % of control and the T/C (dose: 20.0 mg/kg/injection, schedule: Q01DX001 (ip), vehicle: other) was 122 % of control. For the same compound, the T/C (dose: 20.0 mg/kg/injection, schedule: Q01DX009 (ip), vehicle: Klucel (hydroxypropylcellulose) (HPC)) was 117 % of control, the T/C (dose: 20.0 mg/kg/injection, schedule: Q01DX009 (ip), vehicle: acetone) was 110 % of control and the T/C (dose: 20.0 mg/kg/injection, schedule: Q04DX003 (ip), vehicle: Klucel (hydroxypropylcellulose) (HPC)) was 119 % of control. For the same compound, the T/C (dose: 20.0 mg/kg/injection, schedule: Q04DX003 (ip), vehicle: other) was 118 % of control, the T/C (dose: 25.0 mg/kg/injection, schedule: Q01DX001 (ip), vehicle: other) was 119 % of control and the T/C (dose: 25.0 mg/kg/injection, schedule: Q01DX001 (ip), vehicle: saline) was 115 % of control. For the same compound, the T/C (dose: 25.0 mg/kg/injection, schedule: Q01DX009 (ip), vehicle: Klucel (hydroxypropylcellulose) (HPC)) was 89 % of control, the T/C (dose: 26.4 mg/kg/injection, schedule: Q04DX003 (ip), vehicle: saline) was 124 % of control and the T/C (dose: 35.0 mg/kg/injection, schedule: Q01DX001 (ip), vehicle: Klucel (hydroxypropylcellulose) (HPC)) was 115 % of control. The T/C (dose: 40.0 mg/kg/injection, schedule: Q01DX001 (ip), vehicle: carboxymethylcellulose (CMC)) was 117 % of control, the T/C (dose: 40.0 mg/kg/injection, schedule: Q01DX009 (ip), vehicle: Klucel (hydroxypropylcellulose) (HPC)) was 87 % of control and the T/C (dose: 40.0 mg/kg/injection, schedule: Q01DX009 (ip), vehicle: other) was 88 % of control. For the same compound, the T/C (dose: 40.0 mg/kg/injection, schedule: Q04DX003 (ip), vehicle: other) was 115 % of control and 123 % of control, the T/C (dose: 40.0 mg/kg/injection, schedule: Q04DX003 (ip), vehicle: saline) was 119 % of control and the T/C (dose: 50.0 mg/kg/injection, schedule: Q01DX001 (ip), vehicle: Klucel (hydroxypropylcellulose) (HPC)) was 123 % of control. For the same compound, the T/C (dose: 50.0 mg/kg/injection, schedule: Q01DX001 (ip), vehicle: other) was 156 % of control, the T/C (dose: 75.0 mg/kg/injection, schedule: Q01DX001 (ip), vehicle: Klucel (hydroxypropylcellulose) (HPC)) was 112 % of control and the T/C (dose: 75.0 mg/kg/injection, schedule: Q01DX001 (ip), vehicle: other) was 110 % of control. The T/C (dose: 80.0 mg/kg/injection, schedule: Q01DX001 (ip), vehicle: carboxymethylcellulose (CMC)) was 112 % of control, the T/C (dose: 80.0 mg/kg/injection, schedule: Q01DX001 (ip), vehicle: other) was 114 % of control and the T/C (dose: 80.0 mg/kg/injection, schedule: Q04DX003 (ip), vehicle: other) was 87 % of control and 91 % of control.
